Positions of bridges follow the written chain, without caps; N, C: chain ends. Non-standard residues stand in square brackets, D forms with d. Residues, ends and D or L forms follow the SMILES beside them. Chains are numbered I, II in the order given. Gly(N-piperonyl) = O=C(O)CNCc1ccc2c(c1)OCO2; N(4-MeOBn)Gly = COc1ccc(CNCC(=O)O)cc1; Nrpe = C[C@@H](NCC(=O)O)c1ccccc1; Nlys = NCCCCNCC(=O)O
What was measured:
Format in all cases: cell-based, human
[1] = test system: HCC4017 cells; test: MTS cell viability assay
Method: After confirming the binding and specificity of the PPS1 on HCC4017 lung cancer cells, whether this compound has any biological effects on HCC4017 lung cancer cells was assayed. The gold standard cell viability (MTS) assay was used. […] On one of the repetitive experiments of this assay, Cystinylated-PPS1 compound was included (FIG. 6A). This was the intermediate compound used to attach the FITC-malemide for binding assays described previously. […] The only difference between this Cystinylated-PPS1 and the original PPS1 compound was just a single cysteine amino acid at the C-terminal. It was difficult to rationalize having a single amino acid residue at the terminus of the sequence causing a large difference of activity, other possibilities were considered. Cysteine has sulfur (—SH) group on the side chain and two of these can easily form disulfide bonds. […]
A homo-dimeric version of PPS1 was synthesized. […] The resulting dimeric version of the PPS1 compound, PPS1D1 (FIG. 6C), and the analogous dimeric versions of scrambled PC2, PC2D1 (FIG. 6E), and control compound C462, PC462D1 (FIG. 82), were then evaluated for activity. […] As described above, HCC4017 cells and HBEC30kt and HBEC3kt cells were grown in 96 well plates on day 1, treated serial dilutions of PPS1, PPS1D1, C462 and C462D1 on day 2, and viable cell count was measured using MTS reagent on day 3. […]

[2] = test system: HCC4017, H460, HCC95, H1693, H1395 lung cancer cell lines; test: Cell staining with Hoechst 33342 and propidium iodide (membrane integrity)
Method: (§1) It was evaluated how PPS1D1 affects viability of these PS expressing cancer cell lines. While there are difficulties of narrowing down the exact mechanism of action of a compound targeting cell membrane lipids, whether PPS1D1 has any effect on cell membrane integrity was evaluated. Cells were treated with standard DNA staining dyes Propidium iodide (PI) and Hoechst 33342. While both bind DNA, only Hoechst is cell permeable. Therefore, when treating live cells only Hoechst will stain the nucleus while PI will stain the nucleus only if the cell membrane integrity is compromised. All the lung cancer cell lines and normal HBEC30KT cells were treated with these dyes in the presence of PPS1D1 (at 1 μM and 20 μM) or a control compound PC462D1 at 20 μM and evaluated fluorescence by microscopy without fixation. […] These observations indicate that 20 μM PPS1D1 is selectively cytotoxic to PS-positive lung cancer cells.
(§2) 10,000 cells of HCC4017, H460, HCC95, H1693,H1395 and HBEC30KT were plated on chamber slides (Lab-Tek, Thermo Fisher, MA). On second day, cells were treated with PPS (1 μM and 20 μM), control PC462D1 (20 μM) and 0.005% Benzalkonium chloride (BAC) in RPMI medium with 10% FBS containing 3% BSA (KSFM media with 3% BSA for HBEC30KT). Chamber slides were washed with PBS three times. Cells were then stained with Hoechst 33342 (10 μg/ml) for 30 min in dark. Chamber slides were washed with 3× PBS. Cells were then stained with propidium iodide (1 mg/ml) for 15 mins. Cells were washed with 3× PBS and imaged using Fluorescence Microscope (Olympus BX-53).

[3] = test system: HBEC30KT cells; test: as above; conditions: 20 μM
Method: as §1, §2

[4] = test system: HCC4017, H460, HCC95, H1693, H1395 lung cancer cell lines; test: MTS cell viability assay on series of lung cancer cell lines
From the text: In this current study, the target of PPS1D1 is PS and HCC4017 strongly expresses PS. Our next goal was to evaluate the level of PS externalization on other lung cancer cell lines and the activity profile of PPS1D1 on those cell lines. A variety of lung cancer cell lines HCC4017 (lung adenocarcinoma), H460 (large cell lung cancer), H1395 (lung adenocarcinoma), HCC95 (squamous cell lung carcinoma), H1993 (adenocarcinoma; non-small cell lung cancer), H1695 and HBEC30KT (normal bronchial epithelial cells) were treated with fluorescein-labeled Annexin V (FITC-Annexin V) and the bound fluorescein signal was detected using flow cytometry. […] Standard cell viability (MTS) assay by treating these cell lines with PPS1D1 (1 and 20 μM) and 20 μM of a control compound PC462D1 (FIG. 68) in 96-well plates were performed. […] PPS1D1 had no effect on normal HBEC30KT cells at either concentration.
HCC4017, H460, HCC95, H1693, H1395 and HBEC30KT cells were grown in clear bottom 96 well plates. On second day, lung cancer cells were treated with PPS1, PPS1D1 and control PC462D1 in RPMI medium with 10% FBS containing 3% BSA. HBEC30KT was treated with PPS1, PPS1D1 and control PC462D1 in KSFM media with 3% BSA.

## COc1ccc(CN(CC(=O)N(CCCCN)CC(=O)N[C@@H](CCCCN)C(=O)N[C@H](CCCCN)C(=O)N[C@@H](CCSC)C(=O)NCCCC[C@H](NC(=O)[C@H](CCSC)NC(=O)[C@@H](CCCCN)NC(=O)[C@H](CCCCN)NC(=O)CN(CCCCN)C(=O)CN(Cc2ccc(OC)cc2)C(=O)CN(C(=O)CN(Cc2ccc3c(c2)OCO3)C(=O)CN[C@H](C)c2ccccc2)[C@H](C)c2ccccc2)C(N)=O)C(=O)CN(C(=O)CN(Cc2ccc3c(c2)OCO3)C(=O)CN[C@H](C)c2ccccc2)[C@H](C)c2ccccc2)cc1 [PPS1D1] (I: H-[Nrpe][Gly(N-piperonyl)][Nrpe][N(4-MeOBn)Gly][Nlys]K[dK]MK-NH2 / II: H-[Nrpe][Gly(N-piperonyl)][Nrpe][N(4-MeOBn)Gly][Nlys]K[dK]M; amide I:9-II:C; N-terminus assumed)
[1]; HCC4017, tested at 6, 12 and 24 hours post treatment
  activity at different times post treatment: somewhat similar
[1]; MTS, HCC4017
  IC50: ~10 µM
[2]; 1 μM
  PI / Hoechst staining of lung cancer cells: only show staining with Hoechst dye
[2]; 20 μM
  PI / Hoechst staining of lung cancer cells: staining of cells with PI
[3]
  PI staining of normal HBEC30KT cells: not observed
[4]; 1 μM
  cytotoxicity on lung cancer cell lines: not at 1 μM
[4]; 20 μM
  cytotoxicity on lung cancer cell lines: strong cytotoxicity

Reference: US10849875B2, “Cancer specific lipid targeted peptidomimetics” (University of Houston System, priority 2015, dated 2020)
